Values of other authors in patent publication US4127534A, “Novel tripeptides, intermediates therefor and pharmaceutical compositions and methods employing said tripeptides” (priority 1977, dated 1978).

Tests used:
[1] = test system: partially purified brain opiate receptor sites
[2] = injected directly into the brain of the rat

H-Tyr-Gly-Gly-Phe-Met-OH [methionine enkephalin]
binding to partially purified brain opiate receptor sites [1]: binds stereo-specifically | analgesic activity [2]: only weak analgesic agent of short duration
